The NIST ThermoML archive (doi:10.1021/je060415l)
± gives the expanded uncertainty stated by the source.

Details: Liquid, expansion method

CO [methanol]
Details	isothermal compressibility
263.17 K, 19270 kPa	8.26e-07 ± 4.3e-08 1/kPa
263.17 K, 22000 kPa	8.07e-07 ± 4.3e-08 1/kPa
263.17 K, 24860 kPa	7.88e-07 ± 4.2e-08 1/kPa
263.17 K, 27740 kPa	7.73e-07 ± 4.2e-08 1/kPa
263.17 K, 30600 kPa	7.56e-07 ± 4.2e-08 1/kPa
263.17 K, 33550 kPa	7.41e-07 ± 4.1e-08 1/kPa
263.17 K, 36560 kPa	7.26e-07 ± 4.1e-08 1/kPa
263.17 K, 39590 kPa	7.11e-07 ± 4.1e-08 1/kPa
263.17 K, 42670 kPa	6.97e-07 ± 4e-08 1/kPa
263.17 K, 45790 kPa	6.84e-07 ± 4e-08 1/kPa
263.17 K, 48960 kPa	6.72e-07 ± 4e-08 1/kPa
263.17 K, 52170 kPa	6.58e-07 ± 4e-08 1/kPa
263.17 K, 55430 kPa	6.46e-07 ± 3.9e-08 1/kPa
263.17 K, 58830 kPa	6.32e-07 ± 3.9e-08 1/kPa
263.17 K, 62280 kPa	6.21e-07 ± 3.9e-08 1/kPa
263.17 K, 65720 kPa	6.12e-07 ± 3.9e-08 1/kPa
263.17 K, 69340 kPa	5.97e-07 ± 3.8e-08 1/kPa
263.17 K, 73030 kPa	5.88e-07 ± 3.8e-08 1/kPa
263.17 K, 76640 kPa	5.78e-07 ± 3.8e-08 1/kPa
263.17 K, 80310 kPa	5.68e-07 ± 3.8e-08 1/kPa
263.17 K, 84120 kPa	5.57e-07 ± 3.8e-08 1/kPa
263.17 K, 88070 kPa	5.47e-07 ± 3.7e-08 1/kPa
263.17 K, 92050 kPa	5.52e-07 ± 3.7e-08 1/kPa
263.17 K, 95980 kPa	5.33e-07 ± 3.7e-08 1/kPa
263.17 K, 100060 kPa	5.22e-07 ± 3.7e-08 1/kPa
273.17 K, 1010 kPa	1.05e-06 ± 4.9e-08 1/kPa
273.17 K, 3000 kPa	1.02e-06 ± 4.8e-08 1/kPa
273.17 K, 5050 kPa	1e-06 ± 4.8e-08 1/kPa
273.17 K, 7100 kPa	9.82e-07 ± 4.7e-08 1/kPa
273.17 K, 9170 kPa	9.62e-07 ± 4.7e-08 1/kPa
273.17 K, 11220 kPa	9.47e-07 ± 4.6e-08 1/kPa
273.17 K, 13320 kPa	9.25e-07 ± 4.6e-08 1/kPa
273.17 K, 15430 kPa	9.12e-07 ± 4.5e-08 1/kPa
273.17 K, 17510 kPa	8.9e-07 ± 4.5e-08 1/kPa
273.17 K, 19750 kPa	8.72e-07 ± 4.4e-08 1/kPa
273.17 K, 22140 kPa	8.56e-07 ± 4.4e-08 1/kPa
273.17 K, 24880 kPa	8.26e-07 ± 4.3e-08 1/kPa
273.17 K, 27900 kPa	8.1e-07 ± 4.3e-08 1/kPa
273.17 K, 30870 kPa	7.91e-07 ± 4.3e-08 1/kPa
273.17 K, 38720 kPa	7.29e-07 ± 4.1e-08 1/kPa
273.17 K, 42290 kPa	7.21e-07 ± 4.1e-08 1/kPa
273.17 K, 45710 kPa	7.11e-07 ± 4.1e-08 1/kPa
273.17 K, 49180 kPa	6.92e-07 ± 4e-08 1/kPa
273.17 K, 52690 kPa	6.79e-07 ± 4e-08 1/kPa
273.17 K, 55980 kPa	6.73e-07 ± 4e-08 1/kPa
273.17 K, 59210 kPa	6.57e-07 ± 4e-08 1/kPa
273.17 K, 62510 kPa	6.46e-07 ± 3.9e-08 1/kPa
273.17 K, 65790 kPa	6.35e-07 ± 3.9e-08 1/kPa
273.17 K, 69160 kPa	6.24e-07 ± 3.9e-08 1/kPa
273.17 K, 72680 kPa	6.19e-07 ± 3.9e-08 1/kPa
273.17 K, 76170 kPa	6.02e-07 ± 3.8e-08 1/kPa
273.17 K, 79630 kPa	5.9e-07 ± 3.8e-08 1/kPa
273.17 K, 83150 kPa	5.82e-07 ± 3.8e-08 1/kPa
273.17 K, 86550 kPa	5.73e-07 ± 3.8e-08 1/kPa
273.17 K, 90030 kPa	5.63e-07 ± 3.8e-08 1/kPa
273.17 K, 94000 kPa	5.47e-07 ± 3.7e-08 1/kPa
273.17 K, 98210 kPa	5.44e-07 ± 3.7e-08 1/kPa
298.16 K, 740 kPa	1.27e-06 ± 5.5e-08 1/kPa
298.16 K, 2360 kPa	1.22e-06 ± 5.4e-08 1/kPa
298.16 K, 4230 kPa	1.19e-06 ± 5.3e-08 1/kPa
298.16 K, 6090 kPa	1.17e-06 ± 5.2e-08 1/kPa
298.16 K, 7970 kPa	1.14e-06 ± 5.1e-08 1/kPa
298.16 K, 9920 kPa	1.12e-06 ± 5.1e-08 1/kPa
298.16 K, 11950 kPa	1.09e-06 ± 5e-08 1/kPa
298.16 K, 14020 kPa	1.06e-06 ± 4.9e-08 1/kPa
298.16 K, 16080 kPa	1.04e-06 ± 4.9e-08 1/kPa
298.16 K, 18190 kPa	1.02e-06 ± 4.8e-08 1/kPa
298.16 K, 20320 kPa	1e-06 ± 4.8e-08 1/kPa
298.16 K, 22490 kPa	9.82e-07 ± 4.7e-08 1/kPa
298.16 K, 24710 kPa	9.59e-07 ± 4.7e-08 1/kPa
298.16 K, 26990 kPa	9.37e-07 ± 4.6e-08 1/kPa
298.16 K, 29290 kPa	9.23e-07 ± 4.6e-08 1/kPa
298.16 K, 31700 kPa	8.99e-07 ± 4.5e-08 1/kPa
298.16 K, 34090 kPa	8.85e-07 ± 4.5e-08 1/kPa
298.16 K, 36550 kPa	8.65e-07 ± 4.4e-08 1/kPa
298.16 K, 39120 kPa	8.47e-07 ± 4.4e-08 1/kPa
298.16 K, 41740 kPa	8.3e-07 ± 4.3e-08 1/kPa
298.16 K, 44450 kPa	8.14e-07 ± 4.3e-08 1/kPa
298.16 K, 47180 kPa	7.96e-07 ± 4.3e-08 1/kPa
298.16 K, 49870 kPa	7.83e-07 ± 4.2e-08 1/kPa
298.16 K, 52590 kPa	7.68e-07 ± 4.2e-08 1/kPa
298.16 K, 55320 kPa	7.57e-07 ± 4.2e-08 1/kPa
298.16 K, 58040 kPa	7.43e-07 ± 4.1e-08 1/kPa
298.16 K, 60870 kPa	7.28e-07 ± 4.1e-08 1/kPa
298.16 K, 63900 kPa	7.14e-07 ± 4.1e-08 1/kPa
298.16 K, 66990 kPa	7.03e-07 ± 4.1e-08 1/kPa
298.16 K, 69960 kPa	6.89e-07 ± 4e-08 1/kPa
298.16 K, 73410 kPa	6.65e-07 ± 4e-08 1/kPa
298.16 K, 77320 kPa	6.55e-07 ± 4e-08 1/kPa
298.16 K, 80990 kPa	6.49e-07 ± 3.9e-08 1/kPa
298.16 K, 84450 kPa	6.37e-07 ± 3.9e-08 1/kPa
298.16 K, 87890 kPa	6.41e-07 ± 3.9e-08 1/kPa
298.16 K, 91290 kPa	6.17e-07 ± 3.9e-08 1/kPa
298.16 K, 94830 kPa	6.05e-07 ± 3.8e-08 1/kPa
298.16 K, 98440 kPa	6.02e-07 ± 3.8e-08 1/kPa
